Assay results from patent publication US8304002B2, “Fenugreek extract for treating human and animal diseases involving flagellate parasites” (Setubio S.A.S., priority 2008, dated 2012).

How the values were obtained:
MRC5 cells = assay: Cytotoxicity test (protein assay, SRB) on MRC5 cells; format: cell-based, human; settings: MRC5, 100 μg/mL to 2 mg/mL, 24 h and 48 h
Description: The MRC5 cells (primary human foetal lung fibroblasts) were cultured in 25 or 75 cm^2 dishes in supplemented MEM (Minimum Essential Medium, Life Technologies Gibco), in a chamber at 37° C. and % CO2. 500 mL of MEM was supplemented with foetal calf serum (10% final), glutamine 2 mM (5 mL), antibiotics (5 mL penicillin/streptomycin i.e. […], 0.5 mL ampicillin i.e. 10 μg/ml, 0.25 mL gentamicin i.e. 25 μg/mL) and fungicides (5 mL fungizone i.e. 2.5 μg/mL). When the cells reached confluence, they were trypsinised and transferred into 96-well plates at […]. They were then incubated at 37° C., 5% CO2 for 24 h before starting the test. The plates were duplicated for a protein assay after 24 and 48 h. This test consists of culturing the cells in the presence of extracts, then precipitating total proteins to determine their concentration. The MRC5 cells were put into contact with 200 μL of supplemented MEM containing different concentrations of the extracts to be tested. […] Each dilution was tested in triplicate to produce a mean. Two controls were used: • a negative control: cells in the supplemented MEM only • a positive control: cells in the presence of a mixture of the supplemented MEM and 50% DMSO The plates were then incubated at 37° C., 5% CO2 for 24 or 48 h. […] The contents of the wells were homogenised and the optical density read at 490 nm. […]

Histomonas meleagridis [1] = assay: Anti-Histomonas activity: in vitro culture with parasite counts; format: cell-based
Description: The strain of H. meleagridis was isolated from the caeca of turkeys experimentally infested with eggs of the H. gallinarum worm. The parasites were cultured at 39° C. in sealed glass tubes containing 3 mL of supplemented M199 medium. They were transferred twice a week. To do this, 80 μL of preculture were added to 3 mL of fresh medium previously heated in a water bath to 39° C. Counting was performed in a Malassez counting chamber after staining with 0.4% trypan blue. The 100 fields of the chamber were counted. […] was tested at different concentrations. A parasite count was performed three times after 72 h incubation. A negative control was included by replacing the extract with the solvent only (sterile water). To study the dose-dependent effect, each test was performed in triplicate, with different concentrations, counting the parasites at 24 h, 48 h and 72 h. A negative control was included by replacing the extract with the solvent only.

[2] = tested on: bacterial flora associated with H. meleagridis; assay: Effect on the bacterial flora associated with H. meleagridis; format: cell-based; settings: 48 h of culture, FIG. 4
Description: An aliquot of H. meleagridis culture was taken. Four serial dilutions (10^-4 to 10^-7) were made in liquid tryptone soya medium. 20 μL of each dilution was spread onto tryptone soya agar medium. Incubation at 37° C. overnight. The effects of different concentrations of […] and of DMZ on the associated bacterial flora after 48 h of culture were then compared. The results are expressed in number of bacteria per mL (FIG. 4). The extract […] was histomonicidal from 1 mg/mL. It had no effect on the associated bacterial flora. Dimetridazole is histomonicidal from 25 μg/mL at 72 h. On the other hand it is bactericidal from 400 μg/mL.

Histomonas meleagridis [3] = assay: Regrowth of H. meleagridis after transfer into fresh medium following 72 h treatment; format: cell-based
Description: After 72 h of treatment with […] and DMZ, the parasites were put into fresh medium for 96 h to analyse the histomonicidal effect (FIG. 5).

[4] = 25 μg/mL for 72 h, then fresh medium 96 h

SMILES	cytotoxicity for human cells in culture (MRC5 cells)	inhibition at 2000 µg/mL (Histomonas meleagridis [1]; Histomonas meleagridis, 2 mg/mL, at 72 h, read-out: inhibition of proliferation of H. meleagridis) [%]	effect on the proliferation of H. meleagridis (Histomonas meleagridis [1]; at 2 mg/mL)	concentration from which bactericidal [2] [µg/mL]	effect on growth of H. meleagridis (in words) (Histomonas meleagridis [1]; FIG. 3, tested in parallel S520/DMZ)	concentration from which histomonicidal (Histomonas meleagridis [1]; at 72 h) [µg/mL]	concentration at which parasiticidal (Histomonas meleagridis [1]; growth of H. meleagridis, FIG. 3) [µg/mL]	regrowth of the culture (Histomonas meleagridis [3]; 12.5 μg/mL for 72 h, then fresh medium 96 h)	growth relative to the control after transfer (Histomonas meleagridis [3]; [4])	regrowth of the culture (Histomonas meleagridis [3]; [4])	regrowth of the culture (Histomonas meleagridis [3]; 400 μg/mL for 72 h, then fresh medium 96 h)	regrowth of the culture (Histomonas meleagridis [3]; 1 mg/mL for 72 h, then fresh medium 96 h)	concentration from which histomonicidal (confirmed by regrowth) (Histomonas meleagridis [3]; 72 h treatment, then fresh medium 96 h) [µg/mL]	histomonicidal or histomonostatic (confirmed by regrowth) (Histomonas meleagridis [3]; at 25 μg/mL)
O=C(N/N=C/c1ccc([N+](=O)[O-])o1)c1cc([N+](=O)[O-])cc([N+](=O)[O-])c1O [Nifursol]	not toxic	38	slightly histomonostatic											
Cc1ncc([N+](=O)[O-])n1C [DMZ, dimetridazole]				≥ 400	parasitostatic	≥ 25	25	regrowth	about 30%	regrowth	No regrowth	No regrowth	≥ 400	histomonostatic
